How the values were obtained:
Test in all cases: CellTiter-Glo in vitro cell proliferation assay, Example 8
Format in all cases: cell-based, Human
[1] = tested on: A2780 cells; settings: A2780, Ovarian; read-out: Mean IC50
Experimental: (§1) In this Example, in vitro cell proliferation assays were performed using: (1) Human Myeloma tumor cell lines; (2) Human Lymphoma tumor cell lines; (3) Solid Human tumor cell lines; and (4) Parental, Lenalidomide resistant and Bortezomib resistant Jeko-1 Mantle cell Lymphoma tumor cell lines. The compounds tested were three diharmaline compounds, namely the 518B562 (or simply 562), 560, and 561 compounds. In addition, a monoharmaline product designated as 518F014 was also tested. This monoharmaline product had the following structure:
(§2) Each proliferation assay was carried out as follows. The test cells were plated in growth media using a 384-well microtiter plate at 50 μL volume. The cells were incubated for 24 hours at 37° C. in a humidified incubator. After 24 hours of incubation, the test compounds were added to the test wells in DSMO solvent, at concentrations ranging from 0.0075-100 μM. Control wells received equal volumes of DSMO, without compound. Following drugging, the cells were incubated for 72 hours at 37° C. in a humidified incubator. After this exposure, 100 μL of a 1:1 mixture of sterile water and CellTiter-Glo® reagent (Promega) was added to each well. The plates were then incubated for 60 minutes at room temperature, followed by recording the luminescence value of each well using a luminometer as a measure of cell proliferation.

[2] = tested on: A2780CP cells; settings: Ovarian, read-out: Mean IC50
Experimental: as §1, §2

[3] = tested on: A498 cells; settings: A498, RCC; read-out: Mean IC50
Experimental: as §1, §2

[4] = tested on: AN3CA cells; settings: Endometrial, read-out: Mean IC50
Experimental: as §1, §2

[5] = tested on: ASPC-1 cells; settings: ASPC-1, Pancreatic; read-out: Mean IC50
Experimental: as §1, §2

[6] = tested on: BxPC-3 cells; settings: BxPC-3, Pancreatic; read-out: Mean IC50
Experimental: as §1, §2

[7] = tested on: DOHH-2 cells; settings: DoHH-2, GCB-DLBCL; read-out: Mean IC50
Experimental: as §1, §2

[8] = tested on: FaDu cells; settings: H&N - SC, read-out: Mean IC50
Experimental: as §1, §2

[9] = tested on: H1650 (EGFR mut) cells; settings: NSCLC, read-out: Mean IC50
Experimental: as §1, §2

[10] = tested on: H1975 (EGFR mut) cells; settings: NSCLC, read-out: Mean IC50
Experimental: as §1, §2

[11] = tested on: HCC70 cells; settings: HCC70, TNBC; read-out: Mean IC50
Experimental: as §1, §2

[12] = tested on: HEC-1a cells; settings: Endometrial, read-out: Mean IC50
Experimental: as §1, §2

[13] = tested on: JIM1 cells; settings: JIM1, HMCL; read-out: Mean IC50
Experimental: as §1, §2

[14] = tested on: KMM-1 cells; settings: KMM-1, HMCL-A; read-out: Mean IC50
Experimental: as §1, §2

[15] = tested on: KMS-34 cells; settings: KMS-34, HMCL-B; read-out: Mean IC50
Experimental: as §1, §2

[16] = tested on: L363 cells; settings: L363, PCL/MM; read-out: Mean IC50
Experimental: as §1, §2

[17] = tested on: MDA-MB-231 cells; settings: MDA-MB-231, TNBC; read-out: Mean IC50
Experimental: as §1, §2

[18] = tested on: MDA-MB-468 cells; settings: MDA-MB-468, TNBC; read-out: Mean IC50
Experimental: as §1, §2

[19] = tested on: MIA PaCa-2 cells; settings: MIA PaCa-2, Pancreatic; read-out: Mean IC50
Experimental: as §1, §2

[20] = tested on: MOLP-8 cells; settings: MOLP-8, MM IgD; read-out: Mean IC50
Experimental: as §1, §2

[21] = tested on: OCI-LY3 cells; settings: OCI-LY3, ABC-DLBCL; read-out: Mean IC50
Experimental: as §1, §2

[22] = tested on: SiHA cells; settings: Cervical - SC, read-out: Mean IC50
Experimental: as §1, §2

[23] = tested on: RPMI-8226 cells; settings: RPMI-8226, HMM
Experimental: as §2
In this example, different cell lines were subjected to in vitro cell proliferation assays as described in Example 8. In particular, the cell lines are identified in the following Table 17, and the tissue types were: Pancreatic; Endometrial; Triple-Negative Breast Cancer (TNBC); Non-Small-Cell Lung Carcinoma (NSCLC); Ovarian; Renal Cell Carcinoma (RCC); Cervical-Squamous Cell; […] (H&N-Squamous Cell); Germinal Center B Cell-Like Novo Diffuse Large B-Cell Lymphoma (GCB-DLBCL); Activated B-Cell—Diffuse Large B Cell Lymphoma (ABC-DLBCL); Human Myeloma; Human Myeloma Cell Line Lymphocyte-Like; Human Myeloma Cell Line Lymphocyte-Like Myeloma Pleural Effusion Infiltration; Human Multiple Myeloma; Plasma Cell Leukemia/Multiple Myeloma Epstein-Barr Nuclear Antigen-Negative (EBNA-Negative) and to Express mRNA for Proto-Oncogene B-Cell Lymphoma 2 (BCL2); Multiple Myeloma from Peripheral Blood Type IgD Lmabda.

Compound | IC50 [1] [µM] | IC50 [2] [µM] | IC50 [3] [µM] | IC50 [4] [µM] | IC50 [5] [µM] | IC50 [6] [µM] | IC50 [7] [µM] | IC50 [8] [µM] | IC50 [9] [µM] | IC50 [10] [µM] | IC50 [11] [µM] | IC50 [12] [µM] | IC50 [13] [µM] | IC50 [14] [µM] | IC50 [15] [µM] | IC50 [16] [µM] | IC50 [17] [µM] | IC50 [18] [µM] | IC50 [19] [µM] | IC50 [20] [µM] | also measured
COc1ccc2c3c([nH]c2c1)C(CC(CC1=NCCc2c1[nH]c1cc(OC)ccc21)c1ccccc1OC)=NCC3 [compound 1] | 5.9 | 4.45 | 9.91 | 2.5 | 6.44 | 4.3 | 2.25 | 5.36 | 8.18 | 6.54 | 8.02 | 9.27 | 4.51 | 4.2 | 4.15 | 2.62 | 5.72 | 4.39 | 3.67 | 1.98 | IC50 [21]: 3.42 µM; IC50 [22]: 9.44 µM; IC50 [23]: 1.87 µM
CCOc1cc(C(CC2=NCCc3c2[nH]c2cc(OC)ccc32)CC2=NCCc3c2[nH]c2cc(OC)ccc32)ccc1O [compound 2] | 16.9 | 20.2 | 16.8 | 6.72 | 15.2 | 7.88 | 3.66 | 13.5 | 21.6 | 19.5 | 21.2 | 21.6 | 11.5 | 9.4 | 9.35 | 6.26 | 14.3 | 9.9 | 7.51 | 5.3 | IC50 [21]: 6.58 µM; IC50 [22]: 17.1 µM; IC50 [23]: 8.51 µM
COc1ccc2c3c([nH]c2c1)C(CC(CC1=NCCc2c1[nH]c1cc(OC)ccc21)c1ccc(OC)c(OC)c1)=NCC3 [compound 4] | 11.5 | 10.8 | 12.7 | 5.1 | 11 | 6.05 | 3.17 | 7.69 | 13.6 | 14.1 | 11.6 | 16.3 | 6.89 | 6.32 | 4.75 | 6.38 | 12 | 6.27 | 4.37 | 5.03 | IC50 [21]: 5.57 µM; IC50 [22]: 17.1 µM; IC50 [23]: 4.09 µM
COc1ccc2c3c([nH]c2c1)C(CC(CC1=NCCc2c1[nH]c1cc(OC)ccc21)c1cc(OC)c(O)c([N+](=O)[O-])c1)=NCC3 [compound 5] | 24.1 | 24.6 | 22.8 | 11.4 | 15.7 | 21.2 | 9.31 | 22.3 | 23.4 | 28.1 | 15.1 | 27 | 17.7 | 20.3 | 17.4 | 22.2 | 23.7 | 14.7 | 19.9 | 14.4 | IC50 [21]: 12.3 µM; IC50 [22]: 36.9 µM; IC50 [23]: 19.3 µM
COc1ccc2c3c([nH]c2c1)C(CC(CC1=NCCc2c1[nH]c1cc(OC)ccc21)c1ccc(OC)c(O)c1)=NCC3 [compound 7] | 33 | 33.7 | 29.3 | 11.5 | 40.9 | 12.3 | 6.48 | 13.7 | 64.2 | 60.8 | 23.4 | 71.1 | 14.4 | 19.9 | 11.1 | 11.8 | 31.7 | 11.2 | 16.2 | 11.7 | IC50 [21]: 11.4 µM; IC50 [22]: 48.1 µM; IC50 [23]: 11.8 µM
COc1ccc2c3c([nH]c2c1)C(CC(CC1=NCCc2c1[nH]c1cc(OC)ccc21)c1cc(O)c(OC)c(OC)c1)=NCC3 [compound 11] | 18.3 | 24.9 | 51.3 | 8.74 | 21.9 | 11.5 | 4.32 | 16.4 | 26.2 | 19.5 | 27.2 | 36.3 | 11.5 | 12.1 | 11.1 | 11.6 | 13.5 | 12.2 | 11.7 | 10.8 | IC50 [21]: 11.3 µM; IC50 [22]: 15.9 µM; IC50 [23]: 10.1 µM
COc1ccc2c3c([nH]c2c1)C(CC(CC1=NCCc2c1[nH]c1cc(OC)ccc21)c1cc(Br)c(O)c(OC)c1)=NCC3 [compound 12] | 21.2 | 20.5 | 40.9 | 5.36 | 31.3 | 11.3 | 3.72 | 18.2 | 21.6 | 13 | 22 | 24.8 | 6.04 | 10.6 | 7.19 | 10.9 | 11.3 | 11.6 | 11.7 | 3.88 | IC50 [21]: 11.3 µM; IC50 [22]: 50.2 µM; IC50 [23]: 10.2 µM
COc1ccc2c3c([nH]c2c1)C(CC(CC1=NCCc2c1[nH]c1cc(OC)ccc21)c1ccc(OC)c(O)c1I)=NCC3 [compound 14] | 21.2 | 24.3 | 54.7 | 9.05 | 53.1 | 21 | 7.9 | 19.2 | 25.4 | 33.6 | 33.3 | 28.7 | 17.9 | 23.9 | 14.6 | 23.4 | 32.4 | 16.9 | 22.2 | 10.1 | IC50 [21]: 15.4 µM; IC50 [22]: 51.9 µM; IC50 [23]: 7.53 µM
COc1cccc(C(CC2=NCCc3c2[nH]c2cc(OC)ccc32)CC2=NCCc3c2[nH]c2cc(OC)ccc32)c1 [compound 15] | 8.45 | 7.63 | 15.2 | 3.45 | 5.45 | 4.22 | 5.05 | 6.62 | 9.6 | 12.1 | 11.7 | 13.1 | 6.26 | 7.36 | 3.5 | 6.58 | 6.77 | 6.7 | 3.63 | 3.19 | IC50 [21]: 6.32 µM; IC50 [22]: 12.3 µM; IC50 [23]: 2.95 µM

From patent publication US12129265B2, “Therapeutic agents and uses thereof” (Ankh Life Sciences Limited, priority 2020, dated 2024)
